According to PubChem BioAssay AID602217 (Sanford-Burnham Center for Chemical Genomics, 2012):
Active and inactive are the calls of the source.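 Rule for the calls: active = IC50 at or below a set limit; inactive = the rest.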

System: HL-1 cardiomyocytes, 2-deoxyglucose injury, ATPLite luminescence, 2 h
Assay: protection of HL-1 cardiomyocytes from 2-deoxyglucose injury, dose response, cell-based, ATPLite luminescence (AID 602217);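 note: cells kept in glucose-free DMEM during the 2-deoxyglucose injury; potency of protection where actives preserve ATP signal against 2-deoxyglucose stress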

| SMILES | IC50 |
| --- | --- |
| CCCn1nc(C(=O)Nc2nc(-c3ccccn3)cs2)c2ccccc2c1=O | > 79 µM (inactive) |
| O=C(C(=O)N(Cc1ccccc1)Cc1ccccc1)c1c(-c2ccccc2)[nH]c2ccccc12 | 4.8 µM |
| COc1nc(N/N=C/c2cc3c(cc2Br)OCO3)nc(N2CCOCC2)n1 | > 79 µM (inactive) |
| COc1cc(NC(=O)c2cc3ccccc3cc2OC)ccc1NC(=O)c1cccs1 | 5.85 µM |
| COc1ccc(C(=O)Nc2cccc(/C(C)=N/NC(=O)c3ccc([N+](=O)[O-])c(C)c3)c2)cc1OC | 5.18 µM |
| COc1cc(-c2cnc3c(NC=O)cc(-c4cccnc4)cn23)cc(OC)c1OC | 7.57 µM |
| COc1ccc(/C=N/NC(=O)c2ccc(COc3cccc4cccnc34)cc2)cc1OC | > 79 µM (inactive) |
| O=C(NCC(=O)N(Cc1cccs1)C(C(=O)NC1CCCCC1)c1ccco1)c1ccco1 (stereo unspecified) | > 79 µM (inactive) |
| NC(=O)c1nsc(C(=O)N(c2ccccc2F)C(C(=O)NCc2ccccc2)c2ccc(O)cc2)c1N (stereo unspecified) | 11 µM |
| O=C(COC(=O)c1c2c(nc3ccccc13)/C(=C/c1cccc([N+](=O)[O-])c1)CCC2)NC1CCS(=O)(=O)C1 (stereo unspecified) | > 79 µM (inactive) |
| Cc1nn(-c2ccccc2)c(N2CCCC2)c1/C=N/NC(=O)c1cc(-c2ccccn2)nc2ccccc12 | 19.5 µM |
| Cc1[nH]c2ccccc2c1/C=N/NC(=O)c1cc(-c2ccccc2)n[nH]1 | 22.8 µM (inactive) |
| CC(C)(C)NC(=O)c1cc(NC(=O)c2cccs2)cc(NC(=O)c2cccs2)c1 | > 79 µM (inactive) |
| CCOC(=O)c1ccc(NC(=O)c2nc[nH]c2C(=O)NCCCCCNC(=O)OC(C)(C)C)cc1 | > 79 µM (inactive) |
| CC(C)(C)OC(=O)N1CCC(NC(=O)c2nc[nH]c2C(=O)NCC(=O)OCc2ccccc2)CC1 | 25.8 µM (inactive) |
| O=C(NCC(=O)N(Cc1ccccc1)C(C(=O)NC1CCCCC1)c1ccco1)c1ccco1 (stereo unspecified) | > 79 µM (inactive) |
| CCOc1cc(-c2cc(-c3ccc(N)cc3)nc(N)c2C#N)ccc1O | > 79 µM (inactive) |
| CC(=O)Nc1ccc(C(=O)N/N=C/c2ccccc2OC(=O)c2ccc(Cl)cc2)cc1 | > 79 µM (inactive) |
| CN(C(=O)c1sc2nc(N3CCOCC3)c3c(c2c1N)CCCC3)c1ccccc1 | > 79 µM (inactive) |
| N#C/C(=C\Nc1ccc2c(c1)OCCO2)c1nc2ccccc2[nH]1 | > 79 µM (inactive) |
| CS(=O)(=O)c1ccc(-c2cnc3c(NC=O)cc(-c4ccsc4)cn23)cc1 | > 79 µM (inactive) |
| COC(=O)c1cc2c(-c3ccccc3)cc3ccccn3c-2c1C(=O)OC | > 79 µM (inactive) |

| SMILES | IC50 |
| --- | --- |
| O=C(c1cc(=O)[nH]c2ccccc12)N1CCN(S(=O)(=O)c2ccc(Cl)cc2)CC1 | 58.3 µM (inactive) |
| Cc1cc(C)c(C)c(S(=O)(=O)N2CCN(C(=O)c3cc(=O)[nH]c4ccccc34)CC2)c1C | 23.7 µM (inactive) |
| C[C@@H]1CN([C@@H](C)CO)C(=O)c2cc(NC(=O)Nc3ccccc3)ccc2O[C@H]1CN(C)C(=O)Nc1cccc2ccccc12 | > 79 µM (inactive) |
| O=C(Nc1ccccc1)c1nc[nH]c1C(=O)NCCCCCCNC(=O)c1[nH]cnc1C(=O)Nc1ccccc1 | > 79 µM (inactive) |
| O=C(CNC(=O)c1nc[nH]c1C(=O)NCC(=O)OCc1ccccc1)OCc1ccccc1 | > 79 µM (inactive) |
| CNC(=O)c1ccc(-c2sc3nc(N4CCOCC4)c4c(c3c2N)CC(C)(C)OC4)o1 | 46.1 µM (inactive) |
| COc1cc(OC)cc(C(=O)Nc2ccc(C(=O)Nc3ccccc3OC)cc2)c1 | > 79 µM (inactive) |
| CCOc1cc(/C=C(\C#N)C(=O)Nc2ccc(S(N)(=O)=O)cc2)ccc1OCCN1CCOCC1 | > 79 µM (inactive) |
| O=C(COC(=O)c1ccccc1C(=O)OCC(=O)NCCc1c[nH]c2ccccc12)NCCc1c[nH]c2ccccc12 | > 79 µM (inactive) |
| O=C(CN1CCN(c2ccccn2)CC1)Nc1ccc([N+](=O)[O-])cc1C(=O)Nc1ccccc1F | 17.9 µM |
| CCN(CC)C(=O)c1[nH]cnc1C(=O)NCC(=O)OCc1ccccc1 | 69.9 µM (inactive) |
| COc1ccc(C(=O)Nc2cccc(NC(=O)c3ccc(OC)c(OC)c3)n2)cc1OC | 11.2 µM |
| COc1cc(NC(=O)c2cc3nc(-c4ccccc4)cc(-c4ccccc4)n3n2)cc(OC)c1OC | 23.9 µM (inactive) |
| COc1cc(-c2cc(C(=O)Nc3cccc(C(C)=O)c3)c3ccccc3n2)cc(OC)c1OC | 9.9 µM |
| COc1cccc(-c2cnc3c(NC=O)cc(-c4ccc(O)c(OC)c4)cn23)c1 | 27.4 µM (inactive) |
| Cc1cc(C)c2c(N)c(C(=O)N/N=C/c3cccnc3)sc2n1 | > 79 µM (inactive) |
| COc1ccccc1OP(=O)(Nc1cccnc1)Oc1ccccc1OC | 21.2 µM (inactive) |
| CC1(c2ccccc2)NC(=O)N(CC(=O)Nc2cccc(/C=C/c3ccccn3)c2)C1=O (stereo unspecified) | > 79 µM (inactive) |
| COc1ccc(-c2cc(-c3nnc(COC(=O)c4ccncc4)o3)c3ccccc3n2)cc1OC | 24.7 µM (inactive) |
| CCc1nc2ccc(C(=O)Nc3cc(-c4ccccc4)ccc3OC)cn2c1N(C)Cc1nccs1 | > 79 µM (inactive) |
| COC(=O)c1cc2ccccn2c2c(C(=O)OC)c(C(=O)OC)cc1-2 | > 79 µM (inactive) |
| CCOC(=O)C1CCN(c2cc3c(cc2NC(=O)c2ccccc2)n(C)c(=O)n3C)CC1 | > 79 µM (inactive) |

| SMILES | IC50 |
| --- | --- |
| C=CCn1cnc2c(c1=O)c1nc3ccccc3nc1n2/N=C/c1cc(OC)c(OC)c(OC)c1 | 5.93 µM |
| NC(=O)c1cc2ccccc2o/c1=N\NC(=O)c1ccc(F)cc1 | > 79 µM (inactive) |
| COc1cc(-c2cc(NC(C)=O)c3ncc(-c4cc(OC)c(OC)c(OC)c4)n3c2)cc(OC)c1OC | 6.4 µM |
| COc1cc(-c2cc(C(=O)OCC(=O)NC3CC3)c3ccccc3n2)cc(OC)c1OC | 47.4 µM (inactive) |
| CCOc1cc(/C=C/c2ccc3cccc([N+](=O)[O-])c3n2)ccc1OCC(=O)N(C)C | 40.3 µM (inactive) |
| CC(C)c1ccccc1NC(=O)COC(=O)c1c2c(nc3ccccc13)CCN(Cc1ccccc1)C2 | > 79 µM (inactive) |
| O=C(N/N=C/c1ccccn1)c1cc(-c2cccc3ccccc23)n[nH]1 | 2.9 µM |
| CCOC(=O)c1c(C)[nH]c(C)c1C(=O)COc1ncnc2cc([N+](=O)[O-])ccc12 | > 79 µM (inactive) |
| O=S(=O)(c1ccccc1)N1CCN(c2nc(-c3cccnc3)nc3ccccc23)CC1 | 51.6 µM (inactive) |
| CCOc1ccc(C(C(=O)NC2CCCC2)N(C(=O)c2snc(C(N)=O)c2N)c2cccc(O)c2)cc1 (stereo unspecified) | 13.1 µM |
| COc1ccc(-c2cc(-c3nnc(COC(=O)C4CC4C)o3)c3ccccc3n2)cc1OC (stereo unspecified) | > 79 µM (inactive) |
| COc1cc(C(=O)N/N=C/c2ccc(OC(=O)c3cccc(C)c3)c(OC)c2)ccc1O | > 79 µM (inactive) |
| CC(=O)Nc1cc(-c2ccc(C(=O)NC3CC3)cc2)cn2c(-c3cccc(C(C)=O)c3)cnc12 | 12.7 µM |
| O=C1OCCN1C(=O)[C@H]1[C@H](c2ccc([N+](=O)[O-])cc2)C(c2ccc(F)cc2)=NN1c1ccc(Br)cc1 | > 79 µM (inactive) |
| COc1cc2[nH]c(=O)n3nc(-c4ccccc4)nc3c2cc1OC | 35.3 µM (inactive) |
| NC(=O)c1nsc(C(=O)N(c2ccccc2F)C(C(=O)NCc2ccc(F)cc2)c2ccc(O)cc2)c1N (stereo unspecified) | 9.17 µM |
| COc1cccc(/C=N/NC(=O)c2oc3nc(-c4ccccc4)cc(-c4ccco4)c3c2N)c1 | 4.97 µM |
| CCN1C(=O)/C(=C/c2nc3ccccc3c(=O)[nH]2)c2ccccc21 | > 79 µM (inactive) |
| CCOC(=O)C(Cc1ccc(NC(=O)/C(=C/c2ccc(OC(C)=O)cc2)NC(C)=O)cc1)N1C(=O)c2ccccc2C1=O (stereo unspecified) | 52.5 µM (inactive) |
| COc1ccccc1CN(C(=O)CNC(=O)c1ccco1)C(C(=O)NCC1CCCO1)c1ccccc1 (stereo unspecified) | 71.3 µM (inactive) |
| CC12C=CC(=O)CC1CCC1C2CCC2(C)C(O)C(O)CC12 (stereo unspecified) | > 79 µM (inactive) |
| Cc1ccc(NC(=O)c2nc[nH]c2C(=O)NCCCNC(=O)c2[nH]cnc2C(=O)Nc2ccc(C)cc2)cc1 | > 79 µM (inactive) |

| SMILES | IC50 |
| --- | --- |
| CC(=O)c1cccc(-c2cnc3c(NC=O)cc(-c4ccccc4F)cn23)c1 | > 79 µM (inactive) |
| Cc1[nH]c2ccccc2c1/C=N/NC(=O)c1cc(-c2cccs2)[nH]n1 | > 79 µM (inactive) |
| COc1cc(C(=O)N/N=C/c2sc(N3CCOCC3)nc2-c2ccccc2)cc(OC)c1OC | 22.6 µM (inactive) |
| CCOC(=O)C1CCN(c2cc3c(cc2NC(=O)c2ccc(OC)c(OC)c2)n(C)c(=O)n3C)CC1 | > 79 µM (inactive) |
| CCOC(=O)C1CCN(c2cc3c(cc2NC(=O)c2ccccc2Cl)n(C)c(=O)n3C)CC1 | > 79 µM (inactive) |
| CCOc1ncccc1C(=O)Nc1cccc(-c2nc3cccnc3s2)c1 | > 79 µM (inactive) |
| O=CNc1cc(-c2ccc(C(=O)NC3CC3)cc2)cn2c(-c3ccccc3)cnc12 | 40.9 µM (inactive) |
| Cc1ccc(-c2csc(N3CCC[C@@H]3C(=O)NCCn3c(-c4ccncc4)nc4ccccc43)n2)cc1 | > 79 µM (inactive) |
| COc1ccc(NC(=O)c2cc(-c3ccccn3)nc3ccccc23)cc1S(=O)(=O)N(C)C | 20.5 µM (inactive) |
| CC(C)(C)NC(=O)COC(=O)c1c2c(nc3ccccc13)CCC2 | 23.7 µM (inactive) |
| Brc1cc2c(cc1/C=N/Nc1nc(N3CCCC3)nc(N3CCOCC3)n1)OCO2 | > 79 µM (inactive) |
| CC1Nc2ncnc(N3CCN(c4ccccc4)CC3)c2N(Cc2ccc(Cl)cc2)C1=O (stereo unspecified) | 1.95 µM |
| COc1ccc(-c2cc(NC=O)c3ncc(-c4ccc(C(C)=O)cc4)n3c2)cn1 | 22.2 µM (inactive) |
| Nc1c(C(=O)N/N=C/c2cccnc2)oc2nc(-c3ccco3)cc(-c3ccco3)c12 | > 79 µM (inactive) |
| COc1ccc(C(=O)O/N=C(/c2ccccc2)c2ccncc2)cc1OC | > 79 µM (inactive) |
| O=C(Nc1cccc(NC(=O)c2ccc([N+](=O)[O-])o2)c1)c1ccco1 | > 79 µM (inactive) |
| CC(=O)c1ccc(-c2cnc3c(NC=O)cc(-c4cccc(NS(C)(=O)=O)c4)cn23)cc1 | > 79 µM (inactive) |
| COc1ccc(-c2ccc3c(c2)S(=O)(=O)c2cccc(C(=O)N4CCN(c5c(Cl)cncc5Cl)CC4)c2C3=O)cc1OC | 13.7 µM |
| O=C(Nc1ccccc1)c1nc[nH]c1C(=O)NCCCCNC(=O)c1[nH]cnc1C(=O)Nc1ccccc1 | 6.36 µM |
| NC(=O)COc1ccc2oc(=O)cc(-c3cc4ccccc4o3)c2c1 | > 79 µM (inactive) |
